Data: patent US20230365571A1, “COMPOUNDS AND COMPOSITIONS AS Sppl2a INHIBITORS” (Novartis AG, priority 2020, published 2023)

Assays:
Assay type in all cases: cell-based
human SPPL2a [1] = target: T1, human SPPL2a (Homo sapiens, UniProt Q8TCT8); assay: Sppl2a RGA (reporter gene assay) in HEK293 cells; set-up: expressed in transfected cells; host or cells: HEK293 (transient); settings: NT-TNF-VP16-Gal4 substrate, Gal4-luciferase reporter, 24 h
T1 sequence (Q8TCT8 26-520): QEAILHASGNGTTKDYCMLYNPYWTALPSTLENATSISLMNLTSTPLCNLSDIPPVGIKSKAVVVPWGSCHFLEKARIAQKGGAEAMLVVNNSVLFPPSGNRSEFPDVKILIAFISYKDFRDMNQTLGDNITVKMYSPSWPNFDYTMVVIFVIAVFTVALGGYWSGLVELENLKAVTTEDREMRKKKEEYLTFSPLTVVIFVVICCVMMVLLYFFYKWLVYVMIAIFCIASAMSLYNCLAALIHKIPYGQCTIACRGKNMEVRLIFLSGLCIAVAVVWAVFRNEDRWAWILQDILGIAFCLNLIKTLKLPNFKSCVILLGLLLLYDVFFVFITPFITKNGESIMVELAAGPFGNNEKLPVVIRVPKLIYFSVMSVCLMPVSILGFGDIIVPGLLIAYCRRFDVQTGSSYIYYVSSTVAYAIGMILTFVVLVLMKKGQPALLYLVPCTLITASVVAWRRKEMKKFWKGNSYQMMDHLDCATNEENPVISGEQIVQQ
How it was run: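 Cleavage of a membrane-bound TNF N-terminal–VP16-Gal4 substrate drives Gal4-luciferase expression in transiently transfected HEK293 cells also expressing human SPPL2a. Compounds incubated 24 h, 37 °C, 5% CO2; luminescence read, normalized and plotted against concentration for IC50.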

Sppl2a CD74 = target: T2, Sppl2a CD74 (Mus musculus, UniProt Q9JJF9); assay: CD74/p8 mouse whole blood assay, flow cytometry format; settings: Balb/c mouse whole blood, 5 h, CD74 signal on gated live B cells
T2 construct: Mouse whole blood Balb/c mice (sodium citrate) was ordered by Bioreclamation LLC; tissue Bioreclamation LLC
T2 sequence (Q9JJF9 26-523): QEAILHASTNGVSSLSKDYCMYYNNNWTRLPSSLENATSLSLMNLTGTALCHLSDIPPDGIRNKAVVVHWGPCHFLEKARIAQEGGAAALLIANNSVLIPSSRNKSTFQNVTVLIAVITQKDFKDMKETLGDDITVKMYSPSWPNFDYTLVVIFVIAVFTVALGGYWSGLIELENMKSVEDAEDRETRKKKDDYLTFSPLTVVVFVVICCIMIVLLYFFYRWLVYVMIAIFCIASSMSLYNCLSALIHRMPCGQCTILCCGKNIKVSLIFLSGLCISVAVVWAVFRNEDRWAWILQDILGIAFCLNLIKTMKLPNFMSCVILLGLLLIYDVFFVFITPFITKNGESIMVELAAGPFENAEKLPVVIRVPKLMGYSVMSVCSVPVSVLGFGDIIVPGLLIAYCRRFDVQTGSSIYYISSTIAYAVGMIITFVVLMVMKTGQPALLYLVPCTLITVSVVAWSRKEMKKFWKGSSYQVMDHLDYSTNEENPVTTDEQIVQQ
Experimental: CD74/p8 Mouse Whole Blood Assay: Flow Cytometry Format
Mouse whole blood Balb/c mice (sodium citrate) was ordered by Bioreclamation LLC; USA. The blood was used the next day upon receipt (stored at 4° C.). 100 μL blood were transferred in 96 well format plate, where compounds, an 11 point dilutions down from 30 μM, to be tested were previously deposited. The plate was incubated for 5 h in the incubator at 37° C., 5% CO2 under continuous motion. After the incubation the blood was diluted with RBC Lysis Buffer (Amined; Cat. Nr 3-13F00-H or BD; Cat. Nr 555899). The solution was mixed by pipetting and incubated 10 min in the 37° C. incubator. The white blood cells were sedimented for 3 min at 2000 rpm. After removing the supernatant the cell pellet was resuspended and washed twice in RCB Buffer and kept≈ 5 min at room temperature, followed by a centrifugation for 2 min at 2000 rpm. The cell pellet was then resuspend in D-PBS and centrifuged twice. Finally, the cells were taken up in of D-PBS/0.5% inactivated fetal bovine serum/2 mM EDTA. The cell suspension was treated with Live/Dead fixable stain (Life Technologies, >470 nm version), B cells were identified by surface staining with an anti-B220 antibody coupled to APC fluorofor. After staining, the cells were extensively washed with PBS. The cells were permeabilized and fixed in FACS lysing buffer; (BD; #349202, dil 1:10 in water) and labelled with an anti CD74, FITC labelled antibody, washed once more with diluted FACS lysing buffer and spin down. The cell pellet was washed with D-PBS/0.5% inactivated fetal bovine serum/2 mM EDTA and PBS prior to the analysis in a flow cytometer. The compound concentrations were plotted against the intensity (medium fluorescence intensity) of the CD74 signal on the gated life B cell and IC50 were determined by fitting data for a 11 concentrations dose response.

human SPPL2a [2] = target: T1, human SPPL2a; assay: Sppl2a TL (translocation) imaging assay in U-2 OS cells; set-up: expressed in transfected cells; settings: U-2 OS cells expressing human SPPL2a and EGFP-TNFα(aa1-76) NTF substrate; 24 h
How it was run: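 U-2 OS cells stably expressing human SPPL2a plus doxycycline-induced EGFP-TNFα(aa1-76) NTF, treated 24 h at 37 °C with inhibitor (100 μM–1 nM, 11 points, 0.9% DMSO, 5 μg/mL doxycycline). Imaging of nuclear-minus-cytoplasmic EGFP intensity; % inhibition versus 0.5 μM LY-411,575 and DMSO, IC50 by nonlinear regression; CC50 from cell count.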

IC50 (human SPPL2a [1]) [µM] | IC50 (Sppl2a CD74) [µM] | IC50 (human SPPL2a [2]) [µM] | Structure (SMILES)
0.101 | 2.23 | 0.025 | CC[C@H](CNC(=O)c1sc(C2=CCOCC2)nc1C)C(=O)N[C@@H]1C(=O)N2CCCN2Cc2ccccc21 [Example 26, 2-(3,6-Dihydro-2H-pyran-4-yl)-4-methyl-N-((R)-2-(((S)-11-oxo-2,3,10,11-tetrahydro-1H,5H-benzo[d]pyrazolo [1,2-a][1,2]diazepin-10-yl)carbamoyl)butyl) thiazole-5-carboxamide]
0.005 | 0.947 | 0.026 | Cc1nc(C(=O)NC(C)C)sc1C(=O)NC[C@H](C(=O)N[C@@H]1C(=O)N2CCCN2Cc2ccccc21)C1CC1 [Example 27, N^5-((R)-2-Cyclopropyl-3-oxo-3-(((S)-11-oxo-2,3,10,11-tetrahydro-1H,5H-benzo[d]pyrazolo [1,2-a][1,2]diazepin-10-yl)amino)propyl)-N^2-isopropyl-4-methylthiazole-2,5-dicarboxamide]
0.01 | 0.174 | 0.037 | CC[C@H](CNC(=O)c1sc(-c2ccno2)nc1C)C(=O)N[C@@H]1C(=O)N2CCCN2Cc2ccccc21 [Example 32, 2-(Isoxazol-5-yl)-4-methyl-N-((R)-2-(((S)-11-oxo-2,3,10,11-tetrahydro-1H,5H-benzo[d]pyrazolo [1,2-a][1,2]diazepin-10-yl)carbamoyl)butyl) thiazole-5-carboxamide]
0.027 | 0.847 | 0.062 | COCC[C@H](CNC(=O)c1sc(-c2cc(C)no2)nc1C)C(=O)N[C@@H]1C(=O)N2CCCN2Cc2ccccc21 [Example 42, N-((R)-4-Methoxy-2-(((S)-11-oxo-2,3,10,11-tetrahydro-1H,5H-benzo[d]pyrazolo [1,2-a][1,2]diazepin-10-yl)carbamoyl)butyl)-4-methyl-2-(3-methylisoxazol-5-yl)thiazole-5-carboxamide]
0.104 | 1.74 | 0.063 | C[C@H](CNC(=O)c1sc(C2CC2)nc1Cl)C(=O)N[C@@H]1C(=O)N2CCCN2Cc2ccccc21 [Example 43, 4-Chloro-2-cyclopropyl-N-((R)-2-methyl-3-oxo-3-(((S)-11-oxo-2,3,10,11-tetrahydro-1H,5H-benzo[d]pyrazolo [1,2-a][1,2]diazepin-10-yl)amino)propyl) thiazole-5-carboxamide]
0.086 | 2.51 | 0.078 | CC[C@H](CNC(=O)c1sc(-c2cnn(C(F)F)c2)nc1Cl)C(=O)N[C@@H]1C(=O)N2CC3(CC3)CN2C(=O)c2ccccc21 [Example 45, 4-Chloro-2-(1-(difluoromethyl)-1H-pyrazol-4-yl)-N-((R)-2-(((S)-5,11-dioxo-10,11-dihydro-1H,3H,5H-spiro[benzo[d]pyr-azolo[1,2-a][1,2]diazepine-2,1′-cyclopropan]-10-yl)carbamoyl)butyl) thiazole-5-carboxamide]
0.054 | 2.68 | 0.079 | CC[C@H](CNC(=O)c1sc(C2=CCOCC2)nc1Cl)C(=O)N[C@@H]1C(=O)N2CCCN2Cc2ccccc21 [Example 46, 4-Chloro-2-(3,6-dihydro-2H-pyran-4-yl)-N-((R)-2-(((S)-11-oxo-2,3,10,11-tetrahydro-1H,5H-benzo[d]pyrazolo [1,2-a][1,2]diazepin-10-yl)carbamoyl)butyl) thiazole-5-carboxamide]
0.041 | 0.741 | 0.083 | CC[C@H](CNC(=O)c1sc(C2CC2)nc1C)C(=O)N[C@@H]1C(=O)N2CCCN2Cc2ccccc21 [Example 47, 2-Cyclopropyl-4-methyl-N-((R)-2-(((S)-11-oxo-2,3,10,11-tetrahydro-1H,5H-benzo[d]pyrazolo [1,2-a][1,2]diazepin-10-yl)carbamoyl)butyl) thiazole-5-carboxamide]
0.09 | 1.39 | 0.097 | Cc1nc(C2CCOCC2)sc1C(=O)NC[C@H](C(=O)N[C@@H]1C(=O)N2CCCN2Cc2ccccc21)C(F)(F)F [Example 50, 4-Methyl-2-(tetrahydro-2H-pyran-4-yl)-N-((R)-3,3,3-trifluoro-2-(((S)-11-oxo-2,3,10,11-tetrahydro-1H,5H-benzo[d]pyrazolo [1,2-a][1,2]diazepin-10-yl)carbamoyl)pro-pyl)thiazole-5-carboxamide]
0.03 | 0.148 | 0.118 | COCc1nc(C)c(C(=O)NC[C@H](C(=O)N[C@@H]2C(=O)N3CCCN3Cc3ccccc32)C(F)(F)F)s1 [Example 52, 2-(Methoxymethyl)-4-methyl-N-((R)-3,3,3-trifluoro-2-(((S)-11-oxo-2,3,10,11-tetrahydro-1H,5H-benzo[d]pyrazolo [1,2-a][1,2]diazepin-10-yl)carbamoyl)pro-pyl)thiazole-5-carboxamide]
0.022 | 0.279 | 0.125 | CCOc1nc(C)c(C(=O)NC[C@@H](CC)C(=O)N[C@@H]2C(=O)N3CCCN3Cc3ccccc32)s1 [Example 53, 2-Ethoxy-4-methyl-N-((R)-2-(((S)-11-oxo-2,3,10,11-tetrahydro-1H,5H-benzo[d]pyrazolo [1,2-a][1,2]diazepin-10-yl)carbamoyl)butyl) thiazole-5-carboxamide]
0.057 | 0.317 | 0.0003 | CC(C)C(=O)Nc1cc(NC(=O)C[C@@H](C)C(=O)N[C@@H]2C(=O)N3CCCN3Cc3ccccc32)n(C)n1 [Example 62, (R)—N^4-(3-Isobutyramido-1-methyl-1H-pyrazol-5-yl)-2-methyl-N^1—((S)-11-oxo-2,3,10,11-tetrahydro-1H,5H-benzo[d]pyrazolo[1,2-a][1,2]diazepin-10-yl)succinamide]
0.011 | 0.343 | 0.0006 | CC(C)C(=O)Nc1cc(NC(=O)C[C@H](C(=O)N[C@@H]2C(=O)N3CCCN3Cc3ccccc32)C2CCC2)n(C)n1 [Example 63, (S)-2-Cyclobutyl-N^4-(3-isobutyramido-1-methyl-1H-pyrazol-5-yl)-N^1-((S)-11-oxo-2,3,10,11-tetrahydro-1H,5H-benzo[d]pyrazolo [1,2-a][1,2]diazepin-10-yl)succinamide]
0.003 | 0.23 | 0.001 | CC(C)NC(=O)c1nc(Cl)c(NC(=O)C[C@@H](C)C(=O)N[C@@H]2C(=O)N3CCCN3Cc3ccccc32)s1 [Example 64, (R)-N^4-(4-Chloro-2-(isopropylcarba-moyl)thiazol-5-yl)-2-methyl-N^1-((S)-11-oxo-2,3,10,11-tetrahydro-1H,5H-benzo[d]pyrazolo [1,2-a][1,2]diazepin-10-yl)succinamide]
